We go through four compounds from PMC8675869, “Oral Efficacy of a Diselenide Compound Loaded in Nanostructured Lipid Carriers in a Murine Model of Visceral Leishmaniasis” (ACS Infectious Diseases, 2021).

In brackets after ≈: the same amount, converted by molar mass. Some results are limits rather than exact numbers.

For data set [1], the target named is trypanothione reductase (TR). Also noted: method as in PMID 33046492. The settings on record: concentration that inhibits TR activity by 50%; read-out: TR inhibition IC50; cited from earlier work.
Another data set relates to THP-1 cells. The note with it: read-out: THP-1 cells CC50; concentration that kills cells by 50%; cited from earlier work.
The nature of data set [2]: In vitro release from NLC in SGF and SIF. It counts as physicochemical. The note with it: cumulative Se release. How it is done: The release studies of compounds 2h and 2m were performed at 37 °C using simulated gastric fluid (SGF, pH 1.2, pepsin 0.32% (w/v)) and simulated intestinal fluid (SIF, pH 6.8, pancreatin 1% (w/v)) with 2% v/v PEG 400, 5% w/v D-α-tocopherol polyethylene glycol 1000 succinate and 2.5% v/v DMSO added to ensure sink conditions. The dialysis membranes (with 100 kDa pore size) were filled with 30 mg of lyophilized formulations either 2h-NLC or 2m-NLC (corresponding to around 60 μg of the selenocompounds) dispersed in 1 mL of distilled water. The loaded dialysis membranes were placed into a beaker containing 25 mL of SGF. The simulated fluid was kept under magnetic stirring at 150 rpm, and at fixed times 0.250 mL samples were withdrawn and replaced with an equal volume of SGF. Two hours after the incubation in SGF, the device was transferred to another beaker containing 25 mL of SIF magnetically stirred at 150 rpm. As previously, at fixed times, samples were withdrawn and replaced with free SIF. The in vitro release study finished 24 h after the experiment began. The amount of Se released from the nanocarriers was determined by graphite atomic absorption spectrometry, as described in the Supporting Information. Results are expressed as mean ± SD of at least three replicates.

Data set [3] is described as follows: Solubilizing capability of Transcutol for the compounds. It counts as physicochemical. The note with it: Transcutol as solvent.
Data set [4] deals with Salmonella typhimurium (TA1535/pSK1002 strain). In words: SOS/UMU genotoxicity test. It counts as cell-based. The note with it: with or without metabolic activation, highest concentration 1 mg/mL. On the procedure: Salmonella typhimurium (TA1535/pSK1002 strain) (DSMZ, Germany) was employed to determine the genotoxic potential of the compounds 2h and 2m and some of their possible metabolites, as previously described.[56] Bacteria were exposed to different concentrations of compounds either with or without metabolic activation (S9 mix, Mutazyme) to determine the bacterial survival percentage, calculated by measuring the absorbance at 600 nm. Afterward, the β-galactosidase activity was conducted using a colorimetric method employing o-nitrophenyl-β-D-galactopiranoside (ONPG) as a substrate. Genotoxicity activity was measured in terms of β-galactosidase activity calculating an induction factor (IF) relative to the negative control (i.e., bacteria exposed to the solvent) and positive controls (4-nitroquinoline for normal treatments and 2-aminoantracen for S9 metabolic activated treatments). A compound was considered genotoxic for IF values ≥2 at noncytotoxic concentration (i.e., bacterial survival ≥80%). The experiment was considered valid for positive controls if IF ≥ 2.

Data set [5] is described as follows: In vitro hepatic microsomal metabolism. It counts as in vitro ADME, BALB/c mice. The note with it: BALB/c; mouse liver microsomes 0.5 mg protein/mL, 500 μM compound, NADPH, 37 °C; read-out: microsomal stability t1/2 (converted). How it is done:
Liver microsomes were isolated as previously described with minor modifications.[57] Mouse livers were removed and rinsed with 0.9% (w/v) NaCl solution. Then, livers were homogenized in ice-cold 0.25 M sucrose in 0.1 M PBS (pH 7.5). After 20 min of centrifugation at 9000 × g, the supernatant was ultracentrifuged at 100,000 × g for 1 h at 4 °C. The obtained microsome pellet was washed with 0.05 M PBS (pH 7.5) followed by another ultracentrifugation at 100,000 × g for 1 h at 4 °C. Microsomes were resuspended in 20% glycerol–0.1 M PBS and stored at −80 °C until use. Protein concentration was measured by microBCA kit (Thermo Scientific). […] Controls without hepatic cofactor and blanks without compounds were also analyzed. Metabolism was determined at 0, 0.1, 0.25, 0.5, 1, 1.5, and 2 h by the addition of an equal volume of ice-cold ACN, and samples were centrifuged at 9000 × g for 10 min. Supernatants were stored at −20 °C until high liquid performance chromatography (HPLC) quantification analysis at 290 nm, as described in the Supporting Information. Results are expressed as mean ± SD of at least three replicates. […] The rate of microsomal intrinsic clearance (Clint,micr, mL·min^–1·kg^–1) was then calculated following eq 1([27]) [drawing 1] […]
The calculated Clint,micr was used for the prediction of in vivo intrinsic hepatic clearance (Clint) using eq 2 and suitable scaling factors[27] […]
(In general: Liver microsomes are vesicles of endoplasmic reticulum, rich in cytochrome P450 enzymes.)

Data set [6] in a line: Solubility in fasted simulated intestinal fluid (FaSSIF). It counts as physicochemical. The note with it: thermodynamic from solid, fasted simulated intestinal fluid pH 6.5, 4 h, r.t., as Se content, read-out: solubility in SSIF. How it is done:
This experiment determines the solubility of a solid compound in fasted simulated intestinal fluid (FaSSIF) at pH 6.5 after 4 h of equilibration at r.t.[58] In brief, 1 mL of FaSSIF (3 mM sodium taurocholate and 0.75 mM lecithin in sodium phosphate buffer at pH 6.5) was added to 2 mg of the solid compounds. The resulting suspensions were shaken at 900 rpm for 4 h at r.t. Then, they were centrifuged at 12,600 × g for 10 min. The amount of selenocompounds, as selenium (Se) content, remaining in the supernatant was quantified by graphite atomic absorption spectrometry, as described in the Supporting Information. Results are expressed as mean ± SD of three replicates.

Data set [7] can be described thus: Ex vivo intestinal permeability (Ussing chamber). The class given is in vitro ADME, Wistar rats. The note with it: rat jejunum, mucosal-to-serosal, as Se content; for Papp at 2 h, 5 mM: female, Wistar, rat, pH 7.4, free compounds; for intestinal permeability Papp: free compounds. How it is done:
Intestinal permeation experiments were performed by using the Ussing chamber method as previously described.[59] Wistar female rats were fasted for 16 h with free access to water before the experiment. Rats were anesthetized with isoflurane and sacrificed by cervical dislocation. Jejunum was aseptically extracted, excised in 2 cm segments avoiding Peyer’s patches, and placed in cold 0.9% NaCl solution. Jejunum segments were anchored into the Ussing chambers. All experiments were realized from the apical side or donor compartment (DC) to the basolateral or receptor (RC) direction. For 2h and 2m compounds experiments, 5 mL of deionized water at pH 7.4 containing 4% (w/v) D-α-tocopherol polyethylene glycol 1000 succinate, and 5% (w/v) PEG 400 was added to both compartments to ensure sink conditions. In the case of NLC, 5 mL of PBS was used in both compartments. Chambers were continuously oxygenated and maintained at 37 °C. After 10 min of preincubation, the solution in the DC was replaced by 5 mL of either 2h and 2m solutions (final concentration of 5 mM) or their lyophilized NLC diluted in PBS at a 1 mM (in selenocompound concentration). Samples of 500 μL were collected from the RC every 20 min up to 2 h and replaced by an equal volume of the RC solution. Samples were frozen at −20 °C until analysis. The membrane integrity was evaluated by the addition of yellow lucifer to the DC and the determination of its fluorescence at the end of the experiment.[60] Experiments were carried out in triplicate for each compound and formulation. Se content in the RC was analyzed by flame atomic absorption spectrometry, as explained in the Supporting Information. The apparent permeability coefficient per unit membrane surface area (Papp (cm/s)), expressed as mean ± SD, was calculated according to eq 3 [drawing 3] 3 where dQ/dt was the steady-flux (mg/s), C0 was the initial compound concentration in the DC (mg/mL), and A was the surface area of the membrane (cm^2). It has been stablished that, in general, compounds with Papp > 1 × 10^–6 cm/s are well-absorbed in the human intestinal tract whereas Papp < 1 × 10^–6 cm/s are correlated with poor absorption.[32]

For data set [8] the following is noted: cited from earlier work.
Data set [9] is described as follows: Single-dose pharmacokinetic study in mice (plasma Se). The settings on record: BALB/c, mouse, in vivo, ip, 4 mg/kg. How it is done:
A single-dose pharmacokinetic study of 2h, 2m, 2h-NLC, and 2m-NLC were evaluated in mice after i.p. (free drugs) or oral administration (free drugs and loaded into NLC). The dose (4 mg/kg) was selected taking into account LD50 obtained after i.p. administration of the compounds. Blood was collected from the submandibular plexus at different time points: 0, 0.25, 0.5, 1, 2, 4, 8, 24, and 48 h. Collected whole blood samples were centrifuged at 3000 × g for 10 min at 4 °C. The obtained plasma samples were stored at −80 °C until quantification of the drug by graphite atomic absorption spectroscopy, as described in the Supporting Information. Experiments were carried out in triplicate for each compound and formulation. Pharmacokinetic parameters were estimated by fitting the experimental data to a noncompartimental model (NCA) using PKsolver Excel program.[62] The analyzed parameters were as follows: Area under concentration–time curve (AUC), maximum serum concentration (Cmax), clearance (Cl), time of maximum concentration (tmax), mean residence time (MRT), and product half-life (t1/2). The extraction rate (ER) was calculated as the ratio between systemic blood clearance and mouse hepatic blood flow (considered 90 mL·min^–1·kg^–1). […]

The nature of data set [10]: Acute toxicity, Up-and-Down procedure (OECD 425), i.p. The settings on record: mouse, in vivo, ip, 17.5 mg/kg, mice. How it is done: Acute toxicity was carried out following the Up-and-Down procedure proposed by the OECD 425.[61] Three mice were treated with a dose of 17.5 mg/kg of each compound, 2h and 2m, administered by i.p. route. If all the mice died, 1/3 of the dose was administered to other new three mice. If all of them survived, the dose was tripled. If one or two of them died, the same dose was administered to one or two mice more. Both compounds were solubilized in PEG 400:H2O:D-α-tocopherol polyethylene glycol 1000 succinate (60:38.4:1.6, v/v/w).

Details of data set [11]: method as in PMID 25016034. The note with it: daily oral administration for 90 days; cited from earlier work.
On the set-up of data set [12]: method as in PMID 20643750. The settings on record: mice, administration for 13 weeks; cited from earlier work.
Where [13] appears, read: after 4 h of incubation in SIF (following 2 h SGF).
Where [14] appears, read: first 2 h of incubation in SGF, 37 °C, sink conditions.

By IC50 is commonly meant the concentration needed to halve the response being measured. The CC50 is the concentration giving 50% cytotoxicity. One may read the solubility as the concentration that dissolves in the medium under given conditions. A word on the Papp: it is the rate of passage across a membrane or cell layer, normalised by area and donor concentration. Low readings indicate slow passage, high ones fast passage. As a reminder, the logP is a log measure of how a compound divides between an organic and an aqueous phase. In general, LD50 refers to the dose at which mortality reaches 50%. A high value points to a less toxic substance. With `O=C(Nc1ccc([Se][Se]c2ccc(NC(=O)c3ccco3)cc2)cc1)c1ccco1` [2h, N,N′-(4,4′-diselanediylbis(4,1-phenylene))bis-furan-2-carboxamide], the IC50 in [1] was 14 ± 0.9 µM. Besides, the CC50 with THP-1 cells is greater than 50 µM. Moreover, in data set [2] (setting [13]), the “compound released from NLC” value is recorded as “around 13%”. Further, in data set [2] (setting [14]), the “compound released from NLC” value was 5.5 ± 3.1%. In [3], the “amount of compound dissolved in Transcutol” value is on record as “up to 6 mg of compound in 0.4 g”. For the same compound, the “genotoxicity (SOS/UMU test)” value in data set [4] was “did not produce cytotoxicity and DNA damage”. In data set [5], the half-life at 500 μM is 1.7 h. Also, the solubility at 4 h in [6] was 3.2 ± 1.7 µg/mL (≈ 6.03 µM). Besides, in data set [7], the apparent permeability coefficient (Papp) at 2 h, 5 mM was roughly 0.717 ×10⁻⁶ cm/s and the “intestinal permeability Papp” value is reported as 7.2 ± 2.6 (×10^–7) cm/s. Further, the log partition coefficient (logP) in data set [8] is on record as 1. Also, the “ER (extraction ratio)” value in data set [9] was less than 0.3. Further, the 50% lethal dose (LD50) in data set [10] was 17.5 mg/kg.

Turning to `O=C(Nc1ccc([Se][Se]c2ccc(NC(=O)c3cccc4ccccc34)cc2)cc1)c1cccc2ccccc12` [2m, N,N′-(4,4′-diselanediylbis(4,1-phenylene))bisnaphthamide], the half-inhibitory concentration (IC50) in [1] is 5.5 ± 0.1 µM. In addition, the CC50 in the data set on THP-1 cells is greater than 50 µM. In addition, the “compound released from NLC” value was roughly 10% in [2] (setting [13]) and 3.9 ± 0.3% in data set [2] (setting [14]). In addition, in data set [3], the “amount of compound dissolved in Transcutol” value is “up to 6 mg of compound in 0.4 g”. Besides, the “genotoxicity (SOS/UMU test)” value in data set [4] was “did not produce cytotoxicity and DNA damage”. Besides, the half-life at 500 μM in [5] was 1.2 h. Besides, in [6], the solubility at 4 h is 2.5 ± 0.5 µg/mL (≈ 3.84 µM). For the same compound, in data set [7], the Papp at 2 h, 5 mM is roughly 0.591 ×10⁻⁶ cm/s. For the same compound, the “intestinal permeability Papp” value in data set [7] is 5.9 ± 1.1 (×10^–7) cm/s. For the same compound, the logP in data set [8] was 5. For the same compound, in data set [10], the LD50 stood at 17.5 mg/kg.

In the case of `CCOCCOCCO` [Transcutol, diethylene glycol monoethyl ether], the “no observed adverse effect level (NOAEL)” value in [11] is 850 to 1000 mg/kg/day.

As usually defined, the NOAEL is the highest tested level that showed no adverse finding. Consider Polysorbate 80 [Tween 80], for which the no-observed-adverse-effect level (NOAEL) in [12] is on record as 10 g/kg/day.
